Reference: ChEMBL document CHEMBL1131407, “Synthesis and metabotropic glutamate receptor activity of a 2-aminobicyclo[3.2.0]heptane-2,5-dicarboxylic acid, a molecule possessing an extended glutamate conformation” (Bioorg Med Chem Lett, 1998)

Assays:
[1] = molecular target: Metabotropic glutamate receptor 6 (Homo sapiens) (UniProt O15303); assay: Compound (300 uM) was evaluated for percentage agonist activity against human mGluR6 expressed in chinese hamster ovary cells; format: functional, cell-based
Chain of Metabotropic glutamate receptor 6 (Homo sapiens) (O15303 whole entry): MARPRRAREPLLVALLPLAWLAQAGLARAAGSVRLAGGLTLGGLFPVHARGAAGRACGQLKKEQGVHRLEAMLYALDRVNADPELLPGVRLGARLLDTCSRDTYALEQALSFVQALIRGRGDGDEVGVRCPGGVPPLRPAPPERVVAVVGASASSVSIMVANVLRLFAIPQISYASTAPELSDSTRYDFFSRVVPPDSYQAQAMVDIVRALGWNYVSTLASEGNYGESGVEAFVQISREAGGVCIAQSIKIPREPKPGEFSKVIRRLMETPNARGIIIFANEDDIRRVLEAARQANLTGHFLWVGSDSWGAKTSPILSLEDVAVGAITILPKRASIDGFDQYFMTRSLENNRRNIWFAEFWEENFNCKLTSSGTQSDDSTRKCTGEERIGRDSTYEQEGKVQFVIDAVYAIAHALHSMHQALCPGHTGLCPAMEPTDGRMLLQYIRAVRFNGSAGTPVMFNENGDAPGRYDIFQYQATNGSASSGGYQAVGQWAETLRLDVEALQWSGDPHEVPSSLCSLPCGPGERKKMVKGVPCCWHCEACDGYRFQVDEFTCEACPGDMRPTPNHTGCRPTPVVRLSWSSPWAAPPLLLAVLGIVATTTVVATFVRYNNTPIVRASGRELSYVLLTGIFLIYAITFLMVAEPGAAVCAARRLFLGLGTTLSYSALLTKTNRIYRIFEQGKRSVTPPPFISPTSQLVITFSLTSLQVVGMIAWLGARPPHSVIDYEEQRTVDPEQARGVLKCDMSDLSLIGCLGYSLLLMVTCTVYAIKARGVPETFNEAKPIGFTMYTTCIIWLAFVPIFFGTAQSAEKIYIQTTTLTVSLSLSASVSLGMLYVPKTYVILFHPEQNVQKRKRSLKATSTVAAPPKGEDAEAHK

[2] = molecular target: Metabotropic glutamate receptor 1 (Homo sapiens) (UniProt Q13255); assay: Compound (300 uM) was evaluated for percentage agonist activity against human mGluR1a expressed in chinese hamster ovary cells; format: functional, cell-based
Chain of Metabotropic glutamate receptor 1 (Homo sapiens) (Q13255 19-1194 limits assumed): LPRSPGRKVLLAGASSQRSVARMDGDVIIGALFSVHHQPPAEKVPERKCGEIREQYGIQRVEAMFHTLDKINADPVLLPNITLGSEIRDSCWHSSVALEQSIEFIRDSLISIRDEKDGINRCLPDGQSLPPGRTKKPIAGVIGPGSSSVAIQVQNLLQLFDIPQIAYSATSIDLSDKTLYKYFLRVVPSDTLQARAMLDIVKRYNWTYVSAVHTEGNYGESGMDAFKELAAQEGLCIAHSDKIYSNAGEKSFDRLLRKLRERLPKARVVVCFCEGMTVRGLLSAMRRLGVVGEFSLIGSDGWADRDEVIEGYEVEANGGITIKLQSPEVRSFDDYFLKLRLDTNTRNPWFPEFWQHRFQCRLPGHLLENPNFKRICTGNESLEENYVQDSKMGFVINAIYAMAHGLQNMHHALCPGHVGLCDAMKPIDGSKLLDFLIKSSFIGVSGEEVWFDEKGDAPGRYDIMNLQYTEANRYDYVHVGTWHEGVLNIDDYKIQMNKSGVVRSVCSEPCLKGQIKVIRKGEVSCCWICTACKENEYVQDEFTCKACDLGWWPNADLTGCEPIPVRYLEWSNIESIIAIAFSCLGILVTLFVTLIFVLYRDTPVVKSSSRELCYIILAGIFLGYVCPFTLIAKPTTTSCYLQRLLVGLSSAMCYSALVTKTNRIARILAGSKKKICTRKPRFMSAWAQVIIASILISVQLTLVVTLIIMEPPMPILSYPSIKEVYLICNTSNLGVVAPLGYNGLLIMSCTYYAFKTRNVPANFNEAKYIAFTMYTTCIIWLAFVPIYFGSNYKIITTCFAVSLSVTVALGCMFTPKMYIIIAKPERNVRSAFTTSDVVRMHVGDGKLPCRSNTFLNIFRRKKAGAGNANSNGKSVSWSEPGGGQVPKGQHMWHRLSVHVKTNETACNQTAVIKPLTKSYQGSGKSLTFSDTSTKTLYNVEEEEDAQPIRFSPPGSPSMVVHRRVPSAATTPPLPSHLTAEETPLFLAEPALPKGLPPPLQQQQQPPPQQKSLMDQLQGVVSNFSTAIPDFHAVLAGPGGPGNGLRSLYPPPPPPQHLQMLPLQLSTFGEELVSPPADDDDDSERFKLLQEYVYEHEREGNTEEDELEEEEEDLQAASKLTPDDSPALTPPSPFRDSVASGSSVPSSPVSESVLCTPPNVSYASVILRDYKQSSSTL

Question: How did the Max agonist activity [1] turn out when N[C@@]1(C(=O)O)CCC2C[C@H](C(=O)O)C21 (some centres not stated) was run?
Answer: Its Max agonist activity is 20%.

Question: What about the Max agonist activity [2] of the same compound?
Answer: Its Max agonist activity is 16%.
